# Laboratory results from BigSolDB 2.1.
smiles,measurement,setting,value
COc1c(O)cc2c(c1O)[C@@H]1O[C@H](CO)[C@@H](O)[C@H](O)[C@H]1OC2=O,solubility (mole fraction),"in DMSO, 298.15 K",0.0171
same,solubility (mole fraction),"in DMSO, 303.15 K",0.0184
same,solubility (mole fraction),"in DMSO, 308.15 K",0.02
same,solubility (mole fraction),"in DMSO, 313.15 K",0.0214
same,solubility (mole fraction),"in DMSO, 318.15 K",0.023
same,solubility (mole fraction),"in PEG-400, 298.15 K",0.0236
same,solubility (mole fraction),"in PEG-400, 303.15 K",0.0277
same,solubility (mole fraction),"in PEG-400, 308.15 K",0.032
same,solubility (mole fraction),"in PEG-400, 313.15 K",0.0367
same,solubility (mole fraction),"in PEG-400, 318.15 K",0.0415
same,solubility (mole fraction),"in ethanol, 298.15 K",0.00469
same,solubility (mole fraction),"in ethanol, 303.15 K",0.00537
same,solubility (mole fraction),"in ethanol, 308.15 K",0.00612
same,solubility (mole fraction),"in ethanol, 313.15 K",0.00687
same,solubility (mole fraction),"in ethanol, 318.15 K",0.00777
same,solubility (mole fraction),"in ethyl acetate, 298.15 K",0.000228
same,solubility (mole fraction),"in ethyl acetate, 303.15 K",0.000311
same,solubility (mole fraction),"in ethyl acetate, 308.15 K",0.000405
same,solubility (mole fraction),"in ethyl acetate, 313.15 K",0.000526
same,solubility (mole fraction),"in ethyl acetate, 318.15 K",0.000671
same,solubility (mole fraction),"in ethylene glycol, 298.15 K",0.00774
same,solubility (mole fraction),"in ethylene glycol, 303.15 K",0.00859
same,solubility (mole fraction),"in ethylene glycol, 308.15 K",0.00944
same,solubility (mole fraction),"in ethylene glycol, 313.15 K",0.0105
same,solubility (mole fraction),"in ethylene glycol, 318.15 K",0.0117
same,solubility (mole fraction),"in isopropanol, 298.15 K",0.00129
same,solubility (mole fraction),"in isopropanol, 303.15 K",0.00139
same,solubility (mole fraction),"in isopropanol, 308.15 K",0.00149
same,solubility (mole fraction),"in isopropanol, 313.15 K",0.00159
same,solubility (mole fraction),"in isopropanol, 318.15 K",0.00169
same,solubility (mole fraction),"in n-butanol, 298.15 K",0.000379
same,solubility (mole fraction),"in n-butanol, 303.15 K",0.000404
same,solubility (mole fraction),"in n-butanol, 308.15 K",0.000431
same,solubility (mole fraction),"in n-butanol, 313.15 K",0.000458
same,solubility (mole fraction),"in n-butanol, 318.15 K",0.000492
same,solubility (mole fraction),"in propylene glycol, 298.15 K",0.00777
same,solubility (mole fraction),"in propylene glycol, 303.15 K",0.00873
same,solubility (mole fraction),"in propylene glycol, 308.15 K",0.00966
same,solubility (mole fraction),"in propylene glycol, 313.15 K",0.0108
same,solubility (mole fraction),"in propylene glycol, 318.15 K",0.0119
same,solubility (mole fraction),"in sec-butanol, 298.15 K",0.000384
same,solubility (mole fraction),"in sec-butanol, 303.15 K",0.00041
same,solubility (mole fraction),"in sec-butanol, 308.15 K",0.00044
same,solubility (mole fraction),"in sec-butanol, 313.15 K",0.000473
same,solubility (mole fraction),"in sec-butanol, 318.15 K",0.000514
same,solubility (mole fraction),"in transcutol, 298.15 K",0.0145
same,solubility (mole fraction),"in transcutol, 303.15 K",0.0166
same,solubility (mole fraction),"in transcutol, 308.15 K",0.0186
same,solubility (mole fraction),"in transcutol, 313.15 K",0.0207
same,solubility (mole fraction),"in transcutol, 318.15 K",0.0228
same,solubility (mole fraction),"in water, 298.15 K",7.57e-05
same,solubility (mole fraction),"in water, 303.15 K",9.93e-05
same,solubility (mole fraction),"in water, 308.15 K",0.000125
same,solubility (mole fraction),"in water, 313.15 K",0.000155
same,solubility (mole fraction),"in water, 318.15 K",0.000187
